Assay results taken from patent US8263598B2, “Substituted sulfonamide compounds” (Gruenenthal GmbH, priority 2008, dated 2012).

Legend:
[1] = biological target: T1, B1R receptor of rats (rB1R) (Rattus norvegicus, UniProt P97583); assay: FLIPR Ca2+ assay on rat bradykinin 1 receptor (CHO K1 rB1R cells); format: cell-based; settings: test substance 10 μM; CHO K1 cells with B1R gene of rats; agonist Des-Arg9-bradykinin 100 nM; compared to maximum achievable inhibition
T1 construct: host or cells: CHO K1 cells
T1 sequence (P97583 1-337): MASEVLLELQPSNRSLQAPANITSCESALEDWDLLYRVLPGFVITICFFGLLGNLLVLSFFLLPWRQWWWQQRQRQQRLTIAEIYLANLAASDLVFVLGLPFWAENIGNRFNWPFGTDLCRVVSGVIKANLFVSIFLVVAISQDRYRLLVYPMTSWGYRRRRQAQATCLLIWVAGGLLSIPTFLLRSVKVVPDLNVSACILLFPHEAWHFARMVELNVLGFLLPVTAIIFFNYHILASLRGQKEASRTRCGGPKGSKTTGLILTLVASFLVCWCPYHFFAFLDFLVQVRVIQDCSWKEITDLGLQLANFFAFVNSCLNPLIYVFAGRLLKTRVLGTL
Experimental: (§1) The agonistic or antagonistic action of compounds can be quantified on the bradykinin 1 receptor (B1R) of humans and rats with ectopically expressing cell lines (CHO K1 cells) and with the aid of a Ca^2+-sensitive dye (Fluo-4) in the fluorescent imaging plate reader (FLIPR). The figure in percent activation refers to the Ca^2+ signal after addition of Lys-Des-Arg^9-bradykinin (0.5 nM) and Des-Arg^9-bradykinin (100 nM). Antagonists result in a suppression of the Ca^2+ inflow after the addition of the agonist. Percent inhibition values are given in comparison to the maximum achievable inhibition.
(§2) The agonistic or antagonistic action of substances can be determined on the bradykinin 1 receptor (B1R) of humans and rats by means of the following assay.
(§3) According to this assay the Ca^2+ inflow through the channel is quantified by means of a Ca^2+-sensitive dye (Fluo-4 type, Molecular Probes Europe BV, Leiden, Netherlands), in a Fluorescent Imaging Plate Reader (FLIPR, Molecular Devices, Sunnyvale, USA). Method:
(§4) Chinese hamster ovary cells (CHO K1 cells) are used, which are stably transfected with the human B1R gene (hB1R cells, Euroscreen s.a., Gosselies, Belgium), or with the B1R gene of rats (rB1R cells, Axxam, Milan, Italy). For functional investigations these cells are plated out on black 96-well plates with a clear floor (BD Biosciences, Heidelberg, Germany) in a density of 20,000/25,000 cells/well. The cells are incubated overnight with 10 vol. % FBS (foetal bovine serum, Gibco Invitrogen GmbH, Karlsruhe, Germany) at 37° C. and 5% CO2 in a culture medium (hB1R cells: Nutrient Mixture Ham's F12, Gibco Invitrogen GmbH, Karlsruhe, Germany; rB1R cells: D-MEM/F12, Gibco Invitrogen GmbH, Karlsruhe, Germany). The following day the cells are charged for 60 minutes at 37° C. with 2.13 μM Fluo-4 (Molecular Probes Europe BV, Leiden, Netherlands) in HBSS buffer (Hank's buffered saline solution, Gibco Invitrogen GmbH, Karlsruhe, Germany) together with […] (Sigma-Aldrich, Taufkirchen, Germany) and 10 mM HEPES (Sigma-Aldrich, Taufkirchen, Germany).
(§5) The plates are then washed twice with HBSS buffer and HBSS buffer is added which additionally contains 0.1% BSA (bovine serum albumin; Sigma-Aldrich, Taufkirchen, Germany), 5.6 mM glucose and 0.05% gelatin (Merck KGaA, Darmstadt, Germany). After further incubation for 20 minutes at room temperature the plates are used for the Ca^2+ measurement in the FLIPR. The Ca^2+-dependent fluorescence is measured both before and after the addition of substances (λex=488 nm, λem=540 nm). The quantification is carried out by measuring the highest fluorescence intensity (FC, fluorescence counts) over time.
(§6) The FLIPR protocol consists of two substance additions. First of all test substances (10 μM) are pipetted onto the cells and the Ca^2+ inflow is compared with the control (hB1R: Lys-Des-Arg9-bradykinin 0.5 nM; rB1R: Des-Arg9-bradykinin 100 nM). This gives the result in percent activation referred to the Ca^2+ signal after addition of Lys-Des-Arg9-bradykinin (0.5 nM), bzw. Des-Arg9-bradykinin (100 nM). After 10 minutes' incubation 0.5 nM Lys-Des-Arg9-bradykinin (hB1R) and 100 nM Des-Arg^9-bradykinin (rB1R) are applied and the inflow of Ca^2+ is likewise determined. Antagonists lead to a suppression of the Ca^2+ inflow. The percent inhibition compared to the maximum achievable inhibition is calculated. The compounds show a good activity on both human and rat receptors.
(§7) The agonistic and antagonistic action of the compounds according to the invention on the bradykinin 1 receptor (B1R) of humans and rats were determined as described above. Antagonists lead to a suppression of the Ca^2+ inflow. The % inhibition compared to the maximum achievable inhibition was calculated.

[2] = biological target: T2, human B1R receptor (hB1R) (Homo sapiens, UniProt P46663); assay: FLIPR Ca2+ assay on human bradykinin 1 receptor (CHO K1 hB1R cells); format: cell-based; settings: test substance 10 μM; CHO K1 cells with human B1R gene; agonist Lys-Des-Arg9-bradykinin 0.5 nM; compared to maximum achievable inhibition
T2 construct: host or cells: CHO K1 cells
T2 sequence (P46663 1-353): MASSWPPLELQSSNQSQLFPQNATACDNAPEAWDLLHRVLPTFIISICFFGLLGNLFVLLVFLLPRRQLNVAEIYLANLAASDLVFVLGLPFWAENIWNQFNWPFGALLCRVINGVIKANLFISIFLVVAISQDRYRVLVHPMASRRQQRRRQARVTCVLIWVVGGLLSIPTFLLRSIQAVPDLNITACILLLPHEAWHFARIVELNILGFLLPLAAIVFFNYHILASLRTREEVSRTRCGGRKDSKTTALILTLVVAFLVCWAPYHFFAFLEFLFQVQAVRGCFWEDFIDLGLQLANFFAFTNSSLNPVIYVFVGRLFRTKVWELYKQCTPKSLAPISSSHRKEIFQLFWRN
Experimental: as §1, §2, §3, §4, §5, §6, §7

inhibition at 10 µM [1] [%]	inhibition at 10 µM [2] [%]	SMILES
58	89	COc1cc(C)c(S(=O)(=O)N(C)CCOCC(=O)N2CCn3c(CN(C)C)ccc3C2c2ccccc2)c(C)c1C (stereo not drawn) [Example 1, N-(2-(2-(6-((dimethylamino)methyl)-1-phenyl-3,4-dihydropyrrolo[1,2-a]pyrazin-2(1H)-yl)-2-oxoethoxy)ethyl)-4-methoxy-N,2,3,6-tetramethylbenzene-sulfonamide]
104	106	COc1cc(C)c(S(=O)(=O)N(C)CCOCC(=O)N2CCn3cc(CN4CCCCC4)nc3C2)c(C)c1 [Example 2, 4-methoxy-N,2,6-trimethyl-N-(2-(2-oxo-2-(2-(piperidin-1-ylmethyl)-5,6-dihydroimidazo[1,2-a]pyrazin-7(8H)-yl)ethoxy)ethyl)benzenesulfonamide]
93	43	COc1cc(C)c(S(=O)(=O)N(C)CCOCC(=O)N2CCn3cnnc3C2)c(C)c1 [Example 3, N-(2-(2-(5,6-dihydro-[1,2,4]triazolo[4,3-a]pyrazin-7(8H)-yl)-2-oxoethoxy)ethyl)-4-methoxy-N,2,6-trimethylbenzenesulfonamide]
98	102	O=C(C[C@@H](NS(=O)(=O)c1ccc2ccccc2c1)c1ccccc1)N1CCn2cc(CN3CCCCC3)nc2C1 [Example 4, (R)-N-(3-oxo-1-phenyl-3-(2-(piperidin-1-ylmethyl)-5,6-dihydroimidazo[1,2-a]pyrazin-7(8H)-yl)propyl)naphthalene-2-sulfonamide]
97	99	O=C(C[C@@H](NS(=O)(=O)c1ccc2ccccc2c1)c1ccccc1)N1CCn2c(nc(CN3CCCCC3)c2Cl)C1 [Example 5, (R)-N-(3-(3-chloro-2-(piperidin-1-ylmethyl)-5,6-dihydroimidazo[1,2-a]pyrazin-7(8H)-yl)-3-oxo-1-phenylpropyl)naphthalene-2-sulfonamide]
99	100	COc1cc(C)c(S(=O)(=O)N(C)CCOCC(=O)N2CCn3c(nc(CN4CCCCC4)c3Cl)C2)c(C)c1 [Example 6, N-(2-(2-(3-chloro-2-(piperidin-1-ylmethyl)-5,6-dihydroimidazo[1,2-a]pyrazin-7(8H)-yl)-2-oxoethoxy)ethyl)-4-methoxy-N,2,6-trimethylbenzenesulfonamide]
99	101	COc1cc(C)c(S(=O)(=O)N(C)CCOCC(=O)N2CCn3c(CN4CCOCC4)ccc3C2)c(C)c1 [Example 7, 4-methoxy-N,2,6-trimethyl-N-(2-(2-(6-(morpholinomethyl)-3,4-dihydropyrrolo[1,2-a]pyrazin-2(1H)-yl)-2-oxoethoxy)ethyl)benzenesulfonamide]
42	95	O=C(CC(NS(=O)(=O)c1ccc2ccccc2c1)c1ccccc1)N1CCn2c(CN3CCCC3)ccc2C1 (stereo not drawn) [Example 8, N-(3-oxo-1-phenyl-3-(6-(pyrrolidin-1-ylmethyl)-3,4-dihydropyrrolo[1,2-a]pyrazin-2(1H)-yl)propyl)naphthalene-2-sulfonamide]
102	101	COc1cc(C)c(S(=O)(=O)N(C)CCOCC(=O)N2CCn3c(CN4CCN(C)CC4)ccc3C2)c(C)c1 [Example 9, 4-methoxy-N,2,6-trimethyl-N-(2-(2-(6-((4-methylpiperazin-1-yl)methyl)-3,4-dihydropyrrolo[1,2-a]pyrazin-2(1H)-yl)-2-oxoethoxy)ethyl)benzenesulfonamide]
100	97	O=C(CC(NS(=O)(=O)c1ccc2ccccc2c1)c1ccccc1)N1CCn2c(CN3CCOCC3)ccc2C1 (stereo not drawn) [Example 10, N-(3-(6-(morpholinomethyl)-3,4-dihydropyrrolo[1,2-a]pyrazin-2(1H)-yl)-3-oxo-1-phenylpropyl)naphthalene-2-sulfonamide]
102	103	COc1cc(C)c(S(=O)(=O)N(C)CCOCC(=O)N2CCn3c(CN4CCCC4)ccc3C2)c(C)c1 [Example 11, 4-methoxy-N,2,6-trimethyl-N-(2-(2-oxo-2-(6-(pyrrolidin-1-ylmethyl)-3,4-dihydropyrrolo[1,2-a]pyrazin-2(1H)-yl)ethoxy)ethyl)benzenesulfonamide]
100	97	COc1cc(C)c(S(=O)(=O)N(C)CCOCC(=O)N2CCn3c(CCCN4CCN(C)CC4)ccc3C2)c(C)c1 [Example 12, 4-methoxy-N,2,6-trimethyl-N-(2-(2-(6-(3-(4-methylpiperazin-1-yl)propyl)-3,4-dihydropyrrolo[1,2-a]pyrazin-2(1H)-yl)-2-oxoethoxy)ethyl)benzenesulfonamide]
100	44	CN1CCN(CCCc2ccc3n2CCN(C(=O)CC(NS(=O)(=O)c2ccc4ccccc4c2)c2ccccc2)C3)CC1 (stereo not drawn) [Example 13, N-(3-(6-(3-(4-methylpiperazin-1-yl)propyl)-3,4-dihydropyrrolo[1,2-a]pyrazin-2(1H)-yl)-3-oxo-1-phenylpropyl)naphthalene-2-sulfonamide]
100	103	COc1cc(C)c(S(=O)(=O)N(C)CCOCC(=O)N2CCn3c(CN(C)C)ccc3C2c2ccccc2)c(C)c1 (stereo not drawn) [Example 14, N-(2-(2-(6-((dimethylamino)methyl)-1-phenyl-3,4-dihydropyrrolo[1,2-a]pyrazin-2(1H)-yl)-2-oxoethoxy)ethyl)-4-methoxy-N,2,6-trimethylbenzenesulfonamide]
103		COc1cc(C)c(S(=O)(=O)N(C)CCOCC(=O)N2CCn3c(CN4CCCCC4)nnc3C2)c(C)c1 [Example 163, 4-Methoxy-N,2,6-trimethyl-N-(2-(2-oxo-2-(3-(piperidin-1-ylmethyl)-5,6-dihydro-[1,2,4]triazolo[4,3-a]pyrazin-7(8H)-yl)ethoxy)ethyl)benzenesulfonamide]
102		O=C(C[C@@H](NS(=O)(=O)c1ccc2ccccc2c1)c1ccccc1)N1CCn2c(CN3CCCCC3)nnc2C1 [Example 164, (R)-N-(3-oxo-1-phenyl-3-(3-(piperidin-1-ylmethyl)-5,6-dihydro-[1,2,4]triazolo[4,3-a]pyrazin-7(8H)-yl)propyl)naphthalene-2-sulfonamide]
